The record followed here is US4891360A, “6-amino anthracyclines, process for their preparation and use thereof” (Farmitalia Carlo Erba S.r.l., priority 1986, dated 1990).

Values after ≈ are worked out from the molar mass of the structure shown. Read-outs that look alike come from different tables or passages of the source.

For assay [1], the system named is Human Colon Adenocarcinoma Cell Line sensitive to doxorubicin (LoVo). Nature of the assay: In vitro cytotoxicity, colony inhibition test on human colon adenocarcinoma cell line sensitive to doxorubicin (LoVo). Type of assay: cell-based. Conditions: read-out: ID50 (dose which gives 50% reduction of cell number in comparison with untreated controls), LoVo. On the procedure: (§1) Compound II (4-demethoxy-6-deoxy-6-aminodaunorubicin) and Compound III (4-demethoxy-6-deoxy-6-aminodoxorubicin) have been tested "in vitro" against Human Colon Adenocarcinoma Cell Line sensitive to doxorubicin (LoVo) and resistant to doxorubicin (LoVo/DX) in comparison with daunorubicin (DNR) and doxorubicin (DX).
(§2) In Vitro cytotoxicity (a) on human colon adenocarcinoma cell
(§3) line sensitive (LoVo) and resistant to doxorubicin (LoVo/DX)
(§4) (a)Colony inhibition test: 4 hours treatment
(§5) (b)dose which gives 50% reduction of cell number in comparison with
(§6) In Vitro cytotoxicity (a) on human colon adenocarcinoma
(§7) cell line sensitive (LoVo) and resistant to doxorubicin
(§8) (LoVo/DX) of 4-demethoxy-6-deoxy-6-amino DX
(§9) (a)Colony inhibition test: -24 hours treatment

The test system of assay [2] is Human Colon Adenocarcinoma Cell Line resistant to doxorubicin (LoVo/DX). Nature of the assay: In vitro cytotoxicity, colony inhibition test on human colon adenocarcinoma cell line resistant to doxorubicin (LoVo/DX). Type of assay: cell-based. Conditions: read-out: ID50 (dose which gives 50% reduction of cell number in comparison with untreated controls), LoVo/DX. On the procedure:
as §1, §2, §3, §4, §5, §6, §7, §8, §9

The mark [3] stands for this setting: Table 1, colony inhibition test, 4 hours treatment.
Where [4] appears, read: Table 2, colony inhibition test, 24 hours treatment.

With `CC(=O)[C@]1(O)Cc2c(O)c3c(c(N)c2[C@@H](O[C@H]2C[C@H](N)[C@H](O)[C@H](C)O2)C1)C(=O)c1ccccc1C3=O` [Compound II, 4-demethoxy-6-deoxy-6-amino daunorubicin], the values for the IC50 in assay [1] (setting [3]) and in assay [2] (setting [3]) were 0.09 µg/mL (≈ 0.181 µM) and 4.4 µg/mL (≈ 8.86 µM), respectively.

In the case of `C[C@@H]1O[C@@H](O[C@H]2C[C@](O)(C(=O)CO)Cc3c(O)c4c(c(N)c32)C(=O)c2ccccc2C4=O)C[C@H](N)[C@@H]1O` [Compound III, 4-demethoxy-6-deoxy-6-amino doxorubicin], the IC50 in assay [1] (setting [4]) is 0.099 µg/mL (≈ 0.193 µM); in assay [2] (setting [4]) it was 1.15 µg/mL (≈ 2.24 µM).

On to `COc1cccc2c1C(=O)c1c(O)c3c(c(O)c1C2=O)C[C@@](O)(C(C)=O)C[C@@H]3O[C@H]1C[C@H](N)[C@H](O)[C@H](C)O1` [DNR, daunorubicin], for which the IC50 in assay [1] (4 h) is 0.042 µg/mL (≈ 0.0796 µM); in assay [2] (4 h), 2.36 µg/mL (≈ 4.47 µM).

On to `COc1cccc2c1C(=O)c1c(O)c3c(c(O)c1C2=O)C[C@@](O)(C(=O)CO)C[C@@H]3O[C@H]1C[C@H](N)[C@H](O)[C@H](C)O1` [DX, doxorubicin], for which the IC50 in assay [1] (24 h) worked out at 0.0266 µg/mL (≈ 0.0489 µM); in assay [2] (24 h), 0.833 µg/mL (≈ 1.53 µM).
